Measurements reported in paper PMC8615111, “Phenolic Thiazoles with Antioxidant and Antiradical Activity. Synthesis, In Vitro Evaluation, Toxicity, Electrochemical Behavior, Quantum Studies and Antimicrobial Screening” (Antioxidants, 2021).

Assays:
[1] = Cyclic voltammetry of the compounds on graphite-based SPE; assay type: physicochemical; settings: CV, 0.1 M HClO4, graphite-based SPE
Experimental: (§1) The evaluated compounds’ stock solutions used were prepared at a concentration of 5 mM. To test their redox properties, dilutions of 0.5 mM and 2 mM were prepared in 0.1 M HClO4 electrolyte (pH = 1.2). Screen-printed electrodes (SPEs; Metrohm DropSens, Oviedo, Spain) (planar electrodes) with graphite and gold working electrodes were used. Cyclic voltammetry (CV) and differential pulse voltammetry (DPV) were the electrochemical methods applied. The experimental conditions for each test are mentioned near the corresponding data (Appendix A).
In Figure 2, the cyclic voltammograms (CVs) for each of the compounds considered in this study, compared individually with the voltammogram obtained in the electrolyte (0.1 M HClO4), are presented. Thus, the oxidation/reduction peaks corresponding to the electrochemical transformations suffered by each compound can be observed in the potential range considered, in an acidic environment (low pH). From Figure 3, where the voltammograms of all eight compounds were presented together, a similarity is observed between 8a and 8b, and among the other compounds, whereas 5a and 5b can be noted as having the highest oxidation signals.

[2] = Ferric ions (Fe^3+) reducing antioxidant power by cyclic voltammetry
Experimental: as §1
(§2) The antioxidant properties were evaluated in terms of their activity against some free radicals, and other compounds reported in the literature, relevant for this purpose, such as: • ferric ions (Fe^3+)—used to test the reduction of the antioxidant character of the compounds; • DPPH˙ free radical– used to test the scavenging effect of the compounds on this radical; • hydrogen peroxide (H2O2)—used to test the scavenging effect of the synthesized molecules on this compound; • 2,2,6,6-tetramethylpiperidinyl-1-oxy (TEMPO)—used to test the scavenging effect of the synthesized molecules on this compound.
This method is based on the evaluation of the influence of the compound measured by the direct reduction of Fe[(CN)6]^3− to […]. This assay is based on the reduction of Fe^3+ to Fe^2+ due to the action of antioxidants. Based on the electrochemical behavior of the studied compounds, the interaction of Fe^3+ was followed by cyclic voltammetry (CV) via the possible changes of redox peaks characteristic for Fe^3+/Fe^2+ transition after the interaction with antioxidants (if any).
From the voltammogram of potassium ferricyanide it can be observed that the one-electron transfer process Fe^3+/Fe^2+ occurs at 0.247 V/ 0.150 V in acidic media (red) (Figure A1; Table A1).
Each compound presents its characteristic peaks (blue line in each figure).

[3] = TEMPO scavenging by differential pulse voltammetry; settings: 2 mM TEMPO, one hour incubation, 0.1 M HClO4, DPV
Experimental: as §2
TEMPO (2,2,6,6-tetramethylpiperidine-N-oxyl) is a stable organic nitroxide radical that has been reported to scavenge carbon-centered radicals.
Differential pulse voltammetry (DPV) was then applied in order to evaluate the antioxidant effectiveness of the novel compounds through their ability to scavenge the free radical species.

[4] = DPPH˙ radical scavenging assay; assay type: biochemical; settings: for IC50: DPPH˙ scavenging
Experimental: The 2,2-diphenyl-1-picrylhydrazyl (DPPH˙) radical scavenging assay is based on the transfer of one hydrogen from the analyzed compound to the violet radical DPPH˙. This will convert it to a yellow compound, the change in absorbance being proportional to the amount of DPPH˙ neutralized, according to Brand-Williams et al..
The preparation of the DPPH˙ reagent was previously reported by our group. […] Over the previous quantities, DMSO was added until a total volume of 50 µL was obtained in all cuvettes, and 1950 µL of DPPH˙ solution was added to all cuvettes; then, they were shaken for well over 10 min in the dark at room temperature. The absorbances of the solutions were measured at λ = 517 nm. The DPPH˙ radical scavenging activity of evaluated compounds was calculated using Equation (2):(2) DPPH scavenging (%)=control absorbance−sample absorbance/control absorbance×100

[5] = NO˙ radical scavenging assay (Griess reaction); assay type: biochemical; settings: 100 µL of test solution 1 mg/mL in DMSO, 150 min, pH 7.4
Experimental: Scavenging of the NO˙ radical was performed according to some adapted protocols reported in the literature, based on the nitroprusside decomposition at physiological pH and colorimetric quantification of the resulted products using the Griess reaction.
Over 200 µL of 10 mM sodium nitroprusside, 100 µL of test solutions (1 mg/mL in DMSO), and 400 µL phosphate-buffered saline (PBS, pH = 7.4) were added. The mixture was then incubated at room temperature for 150 min on a rotating shaker (GFL Gesellschaft für Labortechnik, Burgwedel, Germany). After that, 1 mL of sulfanilic acid 0.33% in 20% acetic acid was added and after 5 min, 1 mL of naphthylethylenediamine […] 0.1% was added to all test tubes. After 30 min, the absorbance of the sample, given by the chromophore (azo dye) formed during the diazotization of nitrite ions resulting from decomposition of sodium nitroprusside with sulfanilic acid and coupled with naphthylethylenediamine, was measured at 546 nm. The NO˙ radical scavenging activity of the tested compounds was calculated using Equation (3):(3) NO˙ scavenging (%)=control absorbance−sample absorbance/control absorbance×100

Fe^2+ chelation assay = assay type: biochemical
Experimental: The protocol used for assessing Fe^2+ chelating capacity of the compounds was adapted from a report of Benzie and Strain and previously reported by our group. The iron(II) chelation ability of compounds was calculated using Equation (7):(7) iron chelation (%)=control absorbance−sample absorbance/control absorbance×100
The chelating potential for the ferrous ions of the new compounds was determined, based on their competition for Fe^2+ with ferrozine.

[6] = compound 0.5 mM + Fe^3+/Fe^2+ (0.5 mM potassium ferricyanide), 1st Eox column
[7] = compound 0.5 mM + Fe^3+/Fe^2+ (0.5 mM potassium ferricyanide), 1st Iox column
[8] = compound + Fe^3+/Fe^2+, 1st Ered
[9] = compound + Fe^3+/Fe^2+, 1st Ired
[10] = compound + Fe^3+/Fe^2+, 2nd Eox
[11] = compound + Fe^3+/Fe^2+, 2nd Ered column
[12] = compound + Fe^3+/Fe^2+, 2nd Iox column
[13] = compound + Fe^3+/Fe^2+, 2nd Ired
[14] = compound + Fe^3+/Fe^2+, 4th Eox column
[15] = compound + Fe^3+/Fe^2+, 4th Iox column
[16] = compound + Fe^3+/Fe^2+, 5th Eox
[17] = compound + Fe^3+/Fe^2+, 5th Iox column
[18] = compound alone 0.5 mM in 0.1 M HClO4, 2nd Eox
[19] = compound alone 0.5 mM in 0.1 M HClO4, 2nd Ered column
[20] = compound alone 0.5 mM in 0.1 M HClO4, 2nd Iox column
[21] = compound alone 0.5 mM in 0.1 M HClO4, 2nd Ired
[22] = compound alone 0.5 mM in 0.1 M HClO4, 5th Eox
[23] = compound alone 0.5 mM in 0.1 M HClO4, 5th Iox column

SMILES | Eox (V) ([1]; 2nd oxidation peak) | Iox (μA) ([1]; 2nd oxidation peak) | Ired (μA) ([1]; 3rd reduction peak) | Eox (V) [2, 6] [V] | Iox (μA) [2, 7] [μA] | Ered (V) [2, 8] [V] | Ired (μA) [2, 9] [μA] | Eox (V) [2, 10] [V] | Iox (μA) [2, 12] [μA] | Eox (V) [2, 16] [V] | Iox (μA) [2, 17] [μA] | Eox (V) [2, 18] [V] | Iox (μA) [2, 20] [μA] | oxidation signal for TEMPO after incubation with the compound [3] | % of DPPH˙ Scavenged ([4]; 1 µg/mL) [%] | % of DPPH˙ Scavenged ([4]; 1.5 µg/mL) [%] | % of DPPH˙ Scavenged ([4]; 2 µg/mL) [%] | % of DPPH˙ Scavenged ([4]; 3 µg/mL) [%] | % of DPPH˙ Scavenged ([4]; 5 µg/mL) [%] | IC50 [4] [µg/mL] | other results
Cc1csc(N/N=C/c2ccc(O)cc2O)n1.Cl [Compound 5b, (E)-2-(2,4-dihydroxybenzylidene)-1-(4-methylthiazol-2-yl)hydrazin-1-ium chloride] | 0.425 | 69.35 | −2.86 | 0.152 | 5.57 | 0.093 | −8.66 | 0.342 | 22.3 | 0.806 | 8.68 | 0.355 | 15.68 | both the signal shift to higher oxidation potentials and its decrease | 16.46 | 24.42 | 34.44 | 52.10 | 87.08 | 2.90 | Ered (V) ([1]; 2nd reduction peak): 0.085 V; Ired (μA) ([1]; 2nd reduction peak): −0.68 μA; Eox (V) ([1]; 3rd oxidation peak): 0.632 V; Iox (μA) ([1]; 3rd oxidation peak): 5.87 μA; Ered (V) ([1]; 3rd reduction peak): 0.286 V; Ered (V) [2, 11]: 0.323 V; Ired (μA) [2, 13]: −1.52 μA; Eox (V) ([2]; compound + Fe^3+/Fe^2+, 3rd Eox column): 0.505 V; Iox (μA) ([2]; compound + Fe^3+/Fe^2+, 3rd Iox column): 1.20 μA; Eox (V) [2, 14]: 0.506 V; Iox (μA) [2, 15]: 8.68 μA; Ered (V) [2, 19]: 0.327 V; Ired (μA) [2, 21]: −1.56 μA; % of NO˙ Scavenged [5]: 35.63%; Chelation Capacity (%), ferrous ions (Fe^2+ chelation assay; 50 µg/mL): 1.18%; Chelation Capacity (%), ferrous ions (Fe^2+ chelation assay; 100 µg/mL): 8.95%; Chelation Capacity (%), ferrous ions (Fe^2+ chelation assay; 150 µg/mL): 18.42%; Chelation Capacity (%), ferrous ions (Fe^2+ chelation assay; 200 µg/mL): 31.33%
Br.NC(=O)c1cc(-c2csc(N/N=C/c3ccc(O)cc3O)n2)ccc1O [Compound 7b, (E)-1-(4-(3-carbamoyl-4-hydroxyphenyl)thiazol-2-yl)-2-(2,4-dihydroxybenzylidene) hydrazin-1-ium bromide] | 0.412 | 15.78 | 0.201 | 0.205 | 1.39 | 0.161 | −6.8 | 0.305 | 6.08 | 0.926 | 6.34 | 0.347 | 2.07 | does not decrease | 24.01 | 26.00 | 30.41 | 35.81 | 51.80 | 4.84 | Eox (V) ([1]; 1st oxidation peak): 0.267 V; Iox (μA) ([1]; 1st oxidation peak): 13.22 μA; Ired (μA) ([1]; 1st reduction peak): −0.119 μA; Ired (μA) ([1]; 2nd reduction peak): 0.078 μA; Eox (V) ([1]; 3rd oxidation peak): 0.543 V; Iox (μA) ([1]; 3rd oxidation peak): 6.385 μA; Eox (V) [2, 22]: 1.065 V; Iox (μA) [2, 23]: 2.64 μA; % of NO˙ Scavenged [5]: 26.33%; Chelation Capacity (%), ferrous ions (Fe^2+ chelation assay; 50 µg/mL): 0.07%; Chelation Capacity (%), ferrous ions (Fe^2+ chelation assay; 100 µg/mL): 3.44%; Chelation Capacity (%), ferrous ions (Fe^2+ chelation assay; 150 µg/mL): 9.13%; Chelation Capacity (%), ferrous ions (Fe^2+ chelation assay; 200 µg/mL): 16.28%
Cl.Oc1ccc(/C=N/Nc2nc(-c3ccc(O)c(O)c3)cs2)c(O)c1 [Compound 8b, (E)-2-(2,4-dihydroxybenzylidene)-1-(4-(3,4-dihydroxyphenyl)thiazol-2-yl)hydrazin-1-ium chloride] | 0.508 | 40.99 | −40.37 | 0.083 | 0.34 | 0.079 | −8.01 | 0.227 | 28.09 | 0.79 | 15.19 | 0.249 | 1.02 | both the signal shift to higher oxidation potentials and its decrease | 39.38 | 47.41 | 54.37 | 67.84 | 91.38 | 1.72 | Eox (V) ([1]; 1st oxidation peak): 0.166 V; Iox (μA) ([1]; 1st oxidation peak): 2.19 μA; Ered (V) ([1]; 3rd reduction peak): 0.325 V; Ered (V) [2, 11]: 0.279 V; Ired (μA) [2, 13]: −2.81 μA; Eox (V) [2, 14]: 0.449 V; Iox (μA) [2, 15]: 28.48 μA; Ered (V) [2, 19]: 0.303 V; Ired (μA) [2, 21]: −1.97 μA; Eox (V) ([2]; compound alone 0.5 mM in 0.1 M HClO4, 3rd Eox column): 0.349 V; Iox (μA) ([2]; compound alone 0.5 mM in 0.1 M HClO4, 3rd Iox column): 1.76 μA; Eox (V) ([2]; compound alone 0.5 mM in 0.1 M HClO4, 4th Eox column): 0.450 V; Iox (μA) ([2]; compound alone 0.5 mM in 0.1 M HClO4, 4th Iox column): 2.29 μA; Eox (V) [2, 22]: 0.989 V; Iox (μA) [2, 23]: 1.17 μA; % of NO˙ Scavenged [5]: 46.30%; Chelation Capacity (%), ferrous ions (Fe^2+ chelation assay; 50 µg/mL): 10.74%; Chelation Capacity (%), ferrous ions (Fe^2+ chelation assay; 100 µg/mL): 18.15%; Chelation Capacity (%), ferrous ions (Fe^2+ chelation assay; 150 µg/mL): 25.06%; Chelation Capacity (%), ferrous ions (Fe^2+ chelation assay; 200 µg/mL): 33.38%
